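Results reflect a 48-hour exposure of cells in 96-well plates to compound at five concentrations. Definition used: TGI = concentration required for complete inhibition of growth.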
Assays:
Test in all cases: DTP human tumour cell line panel, 48 h
[1] = tested on: SNB-19 CNS
[2] = tested on: HL-60(TB) leukemia
[3] = tested on: OVCAR-8 ovarian
[4] = tested on: SR leukemia
[5] = tested on: NCI-H522 lung
[6] = tested on: MDA-MB-231 breast
[7] = tested on: SW-620 colon
[8] = tested on: UACC-257 melanoma
[9] = tested on: NCI-H460 lung
[10] = tested on: PC-3 prostate
[11] = tested on: OVCAR-5 ovarian
[12] = tested on: A498 renal
[13] = tested on: A549 NSCLC
[14] = tested on: DU-145 prostate
[15] = tested on: CAKI-1 renal
[16] = tested on: HS 578T breast
[17] = tested on: MOLT-4 leukemia
[18] = tested on: EKVX NSCLC
[19] = tested on: T-47D breast
[20] = tested on: SK-MEL-5 melanoma
[21] = tested on: HT29 colon
[22] = tested on: SK-MEL-2 melanoma
[23] = tested on: SK-MEL-28 melanoma
[24] = tested on: OVCAR-4 ovarian
[25] = tested on: MDA-N
[26] = tested on: NCI-H23 lung
[27] = tested on: HOP-62 NSCLC
[28] = tested on: HCT-15 colon
[29] = tested on: UACC-62 melanoma
[30] = tested on: HCT-116 colon
[31] = tested on: IGROV1 ovarian
[32] = tested on: U251 CNS
[33] = tested on: SF-268 CNS
[34] = tested on: NCI-H226 lung
[35] = tested on: MALME-3M melanoma
[36] = tested on: SNB-75 CNS
[37] = tested on: HCC-2998 colon
[38] = tested on: 786-0 renal
[39] = tested on: LOX IMVI melanoma
[40] = tested on: M14 melanoma
[41] = tested on: RPMI-8226 leukemia
[42] = tested on: SK-OV-3 ovarian
[43] = tested on: SN12C renal
[44] = tested on: UO-31 renal
[45] = tested on: KM12 colon
[46] = tested on: OVCAR-3 ovarian
[47] = tested on: HOP-92 NSCLC
[48] = tested on: COLO 205 colon
[49] = tested on: MCF7 breast
[50] = tested on: SF-539 CNS
[51] = tested on: TK-10 renal
[52] = tested on: MDA-MB-435
[53] = tested on: NCI/ADR-RES ovarian
[54] = tested on: K-562 leukemia
[55] = tested on: CCRF-CEM leukemia
[56] = tested on: SF-295 CNS
[57] = tested on: RXF 393 renal
[58] = tested on: BT-549 breast
[59] = tested on: ACHN renal

Measured: TGI

CC(CCC(=O)O)C1CCC2C3C(O)CC4CC(O)CCC4(C)C3CC(O)C12C (centres undefined)
> 100 µM: all assays above
